Key:
K. pneumo 13882 = experiment: Selective lysis test, OD600, meropenem and cefotaxime (Example 2); type: cell-based, K. pneumoniae
Procedure: (§1) In this experiment the following strains were tested: strain K. pneumoniae 13882 (previously considered meropenem sensitive and cefotaxime sensitive); E. coli BAA-197 (ESBL) (which expresses an extended-spectrum (beta)-lactamase enzyme and was previously considered meropenem sensitive and cefotaxime resistant); K. pneumoniae BAA-1705 (KPC) (which expresses a carbapenemase enzyme and was previously considered meropenem resistant and cefotaxime resistant); and K. pneumoniae BAA-2146 (NDM1) (which expresses the metallo-beta-lactamase-1 enzyme and was previously considered meropenem resistant and cefotaxime resistant).
(§2) An isolated colony from an overnight Tryptocase Soy Agar (TSA) plate of each bacteria was suspended in 1 ml Tryptocase Soy Broth (TSB) in a 5 ml BD polystyrene round bottom tube. TSB cultures were incubated at 37° C. for 1.5 hours shaking. Three 250 μl aliquots of each stationary-phase culture were then transferred to three 2 ml Eppendorf microcentrifuge tubes. One tube contained 500 μl of Normal Saline (BD); the second tube contained 500 μl Normal Saline with meropenem at 10 μg/ml; and the third tube contained 500 μl Normal Saline with cefotaxime (abbreviated […]) at 10 μg/ml. Tubes were inverted then incubated at 37° C. stagnant for thirty minutes. Then […] of lysis buffer (0.5% SDS in PSB) was added to each tube and each tube was vortexed for 5 seconds. Post incubation, all tubes were spun at 10000 G for 5 minutes. Supernatant was decanted and the pellet resuspended in Normal Saline. Tubes were vortexed. OD600 was measured using Eppendorf uvettes in a spectrophotometer. The delta between the control and the meropenem normal saline, or the control and the cefotaxime normal saline was used to determine susceptibility.

[1] = test system: K. pneumo BAA-2146 (NDM1); experiment: as above; type: cell-based, K. pneumoniae
Procedure: as §1, §2

K. pneumo BAA-1705 (KPC) = experiment: as above; type: cell-based, K. pneumoniae
Procedure: as §1, §2

E. coli BAA-197 (ESBL) = experiment: as above; type: cell-based
Procedure: as §1, §2

[2] = test system: class D beta-lactamase Enterobacteriaceae; experiment: Lysis test on simulated blood cultures vs CLSI disk diffusion (Example 9); type: cell-based; conditions: the one Class D strain incorrect with ertapenem; cut-off ≦30% resistant
Procedure: In this example, isolates tested include strains with and without carbapenemases. From fresh blood agar plates, three colonies per strain were used to inoculate blood culture media containing human blood and grown overnight at 37° C. with shaking, producing a simulated blood culture. Cultures were then diluted 1:10 into broth medium and grown for an additional hour at 37° C. with shaking. For each strain, four 250 μL aliquots were added into four separate 2 mL Eppendorf microcentrifuge tubes. […] Tubes were vortexed to resuspend the pellet completely, and then OD600 measurement was taken and the percent change, or percent lysis, between the control and antibiotic tubes was calculated (percent change=[control OD−antibiotic OD]/control OD). Results were then compared to the susceptibility of the strains, determined using the Clinical and Laboratory Standards Institute (CLSI) methods for disk diffusion. […]
Of note, if a strain was determined to be intermediate to a drug by the disk diffusion method using CLSI breakpoints, it was expected to correlate to the resistant answer by the method of the invention. […] With this consideration, it is preferable that intermediate strains are conservatively scored as resistant to prevent possible treatment failure. […]

[3] = test system: K. pneumoniae strain BAA2146 NDM+; experiment: Carbapenem test, Triton fixation buffer and BacUni QuickFISH staining (Example 4); type: cell-based; conditions: FIG. 11, 10 μg/ml
Procedure: (§3) An isolated colony from an overnight Tryptocase Soy Agar (TSA) plate for each bacteria was suspended in 1 ml Tryptocase Soy Broth (TSB) in a 5 ml BD polystyrene round bottom tube. TSB cultures were incubated at 37° C. for 1.5 hours shaking. […] of each stationary-phase culture were transferred to 2 ml Eppendorf microcentrifuge tubes containing 500 μl of Normal Saline (BD); or 500 μl Normal Saline with imipenem, ertapenem, or meropenem at a concentration of […], […], or 40 μg/ml (26.67 μg/ml final concentration). Tubes were inverted then incubated at 37° C. stagnant for thirty minutes. Then 10 μl from each tube was pipetted onto plain glass slide on a 55° C. heat block, followed by 25 μl fixation buffer (0.5% T×100, 100 mM Tris pH 9, 24% Ethanol, and 10 mM NaCl); slide is incubated until sample is dry. Ten μl of BacUni QuickFISH hybridization buffer was added to each slide followed by a 22×22 mm coverslip. The slide was then incubated at 55° C. for 15 minutes. The slides were viewed on a fluorescence microscope 60× oil immersion on Dual TxR/FITC. Images were taken with a 1 second exposure.
(§4) The control fixation in this experiment has all the same components, except no Triton X-100. This was done to assess whether the selective lysis step is required to resolve a difference between susceptible and resistant bacteria.

E. coli strain 35218 = experiment: as above; type: cell-based; conditions: FIG. 9; E. coli 35218; 10 μg/ml
Procedure: as §3, §4

[4] = test system: K. pneumoniae strain 13882; experiment: as above; type: cell-based; conditions: FIG. 10; K. pneumoniae 13882; 10 μg/ml
Procedure: as §3, §4

Row | SMILES | % diff (K. pneumo 13882; K. pneumo 13882, OD600 vs control) | OD600 (K. pneumo 13882; K. pneumo 13882, antibiotic 10 μg/ml, 30 min, SDS lysis buffer + vortex, 1.5 h culture) | assay score (sensitive or resistant) (K. pneumo 13882; K. pneumoniae 13882) | % diff ([1]; K. pneumo BAA-2146 (NDM1), OD600 vs control) | OD600 ([1]; K. pneumo BAA-2146 (NDM1), antibiotic 10 μg/ml, 30 min, SDS lysis buffer + vortex, 1.5 h culture) | assay score (sensitive or resistant) ([1]; K. pneumoniae BAA-2146 (NDM1)) | % diff (K. pneumo BAA-1705 (KPC); K. pneumo BAA-1705 (KPC), OD600 vs control) | OD600 (K. pneumo BAA-1705 (KPC); K. pneumo BAA-1705 (KPC), antibiotic 10 μg/ml, 30 min, SDS lysis buffer + vortex, 1.5 h culture) | assay score (sensitive or resistant) (K. pneumo BAA-1705 (KPC); K. pneumoniae BAA-1705 (KPC)) | assay score (sensitive or resistant) (E. coli BAA-197 (ESBL)) | % diff (E. coli BAA-197 (ESBL); OD600 vs control) | OD600 (E. coli BAA-197 (ESBL); antibiotic 10 μg/ml, 30 min, SDS lysis buffer + vortex, 1.5 h culture) | lysis (percent change of OD600) [2] | test result (susceptibility or resistance) by BacUni QuickFISH staining [3] | test result (susceptibility or resistance) by BacUni QuickFISH staining (E. coli strain 35218) | test result (susceptibility or resistance) by BacUni QuickFISH staining [4]
1 | CO/N=C(\C(=O)N[C@@H]1C(=O)N2C(C(=O)O)=C(COC(C)=O)CS[C@H]12)c1csc(N)n1 [cefotaxime] | 69.8% | 0.11 | sensitive | 6.7% | 0.28 | resistant | 34.1% | 0.334 | resistant | resistant | 19.1% | 0.292 |  |  |  | 
2 | C[C@@H](O)[C@H]1C(=O)N2C(C(=O)O)=C(S[C@@H]3CN[C@H](C(=O)Nc4cccc(C(=O)O)c4)C3)[C@H](C)[C@H]12 [ertapenem] |  |  |  |  |  |  |  |  |  |  |  |  | 36% | detect resistance | detect susceptibility | detect susceptibility

Source: patent US20160281125A1, “ANTIMICROBIAL COMPOUND SUSCEPTIBILITY TEST” (priority 2013, published 2016)
